Data on one compound can be found in US20210000912A1, “Compositions And Methods For Prophylaxis Or Treatment Of Pain” (Interk Peptide Therapeutics Limited, priority 2017, published 2021).

One may read the pIC50 as the negative decadic logarithm of the IC50, by convention in mol/L.

Series [1] addresses T1, PKG1α (h) (Homo sapiens, UniProt Q13976).
T1 construct: purchased Eurofins Pharma Discovery Services UK Ltd (contract assay service)
T1 sequence (Q13976 1-671): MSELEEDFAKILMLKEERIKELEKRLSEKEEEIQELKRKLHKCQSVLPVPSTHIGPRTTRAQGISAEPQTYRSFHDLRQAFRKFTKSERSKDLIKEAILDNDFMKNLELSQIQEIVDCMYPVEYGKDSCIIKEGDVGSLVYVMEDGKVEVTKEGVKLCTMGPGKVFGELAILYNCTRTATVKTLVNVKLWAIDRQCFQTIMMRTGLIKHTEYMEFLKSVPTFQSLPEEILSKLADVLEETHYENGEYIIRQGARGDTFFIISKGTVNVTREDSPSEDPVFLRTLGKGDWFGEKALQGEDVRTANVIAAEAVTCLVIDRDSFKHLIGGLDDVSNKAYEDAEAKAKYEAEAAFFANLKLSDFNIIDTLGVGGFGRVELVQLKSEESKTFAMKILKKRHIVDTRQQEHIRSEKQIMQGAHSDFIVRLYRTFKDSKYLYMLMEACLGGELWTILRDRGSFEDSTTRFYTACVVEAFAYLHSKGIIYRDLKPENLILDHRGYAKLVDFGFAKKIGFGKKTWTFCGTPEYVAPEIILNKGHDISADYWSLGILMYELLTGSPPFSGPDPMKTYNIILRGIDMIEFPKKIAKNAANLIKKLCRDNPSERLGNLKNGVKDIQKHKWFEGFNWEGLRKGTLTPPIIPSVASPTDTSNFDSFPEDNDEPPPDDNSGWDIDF
The series can be described thus: PKG1α kinase activity assay, cell free. Format: biochemical. Here is the method:
(§1) The capacity of test peptides to inhibit the activity of the kinases PKG1α, PKG1β, and Src family kinases in a cell free assay was assessed. The test peptides were amidated at their C-terminal end (indicated by “—NH2”) unless otherwise noted. Kinase activity assays were conducted by Eurofins Pharma Discovery Services UK Ltd (Dundee Technology Park, Dundee, United Kingdom) and Reaction Biology Corp. (Malvern, Pa., USA).
(§2) All test peptides are prepared to 50× final assay concentration in 100% DMSO. This working stock of the test compound is added to assay wells as the first component in the reaction, followed by the remaining components of the respective assay protocols described below. There is no pre-incubation step between the test peptide and the kinase prior to initiation of the reaction. The kinases are diluted in buffer (20 mM MOPS, 1 mM EDTA, 0.01% Brij-35, 5% Glycerol, 0.1% β-mercaptoethanol, 1 mg/mL BSA) prior to addition to the reaction mix.
(§3) Positive control wells contain all components of the reaction, except the test peptide of interest. However, DMSO (at a final concentration of 2%) is included in positive control wells to control for solvent effects. Negative control wells contain all components of the reaction, with a reference inhibitor (staurosporine) replacing the test peptide. This abolishes kinase activity and establishes a base-line (0% kinase activity). Kinase assay protocols (Eurofins Pharma Discovery Services UK Ltd, Dundee Technology Park, Dundee, United Kingdom) are described below. Of the Src family kinases, only the assay protocol for c-Src is shown.
PKG1α (h) is incubated with 8 mM MOPS pH 7.0, 0.2 mM EDTA, 10 μM cGMP, 200 μM peptide RRRLSFAEPG, 10 mM magnesium acetate and [γ-^33P]-ATP (specific activity approx. 500 cpm/pmol, concentration as required). The reaction is initiated by the addition of the MgATP mix. After incubation for 40 minutes at room temperature, the reaction is stopped by the addition of 3% phosphoric acid solution. A 10 μL aliquot of the reaction is then spotted onto a P30 filtermat and washed three times for 5 mins in 75 mM phosphoric acid and once in methanol prior to drying and scintillation counting.

Series [2] addresses T2, PKG1β (h) (Homo sapiens, UniProt Q13976).
T2 construct: purchased Eurofins Pharma Discovery Services UK Ltd (contract assay service)
T2 sequence (Q13976 1-686 isoform Q13976-2): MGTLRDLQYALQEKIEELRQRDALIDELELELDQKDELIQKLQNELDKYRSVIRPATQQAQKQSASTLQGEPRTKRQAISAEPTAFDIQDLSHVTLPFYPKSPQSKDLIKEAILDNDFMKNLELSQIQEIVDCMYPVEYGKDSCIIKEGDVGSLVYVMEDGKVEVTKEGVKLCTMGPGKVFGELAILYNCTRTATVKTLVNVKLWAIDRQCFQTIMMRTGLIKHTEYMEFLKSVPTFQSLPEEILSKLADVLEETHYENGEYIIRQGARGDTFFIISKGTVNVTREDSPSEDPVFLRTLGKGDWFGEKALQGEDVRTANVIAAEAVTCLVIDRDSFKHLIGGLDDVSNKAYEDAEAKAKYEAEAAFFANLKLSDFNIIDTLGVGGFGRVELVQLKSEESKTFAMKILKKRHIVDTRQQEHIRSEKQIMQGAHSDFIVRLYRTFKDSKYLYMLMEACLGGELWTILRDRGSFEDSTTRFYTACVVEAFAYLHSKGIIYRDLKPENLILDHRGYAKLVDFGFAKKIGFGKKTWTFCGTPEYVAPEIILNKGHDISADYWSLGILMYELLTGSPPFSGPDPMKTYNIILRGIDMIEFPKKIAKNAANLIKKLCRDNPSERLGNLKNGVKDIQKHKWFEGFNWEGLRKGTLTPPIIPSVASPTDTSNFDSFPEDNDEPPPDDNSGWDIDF
The series can be described thus: PKG1β kinase activity assay, cell free. The format is biochemical. Here is the method:
as §1, §2, §3
PKG1b(h) is incubated with 8 mM MOPS pH 7.0, 0.2 mM EDTA, 10 μM cGMP, 200 μM RRRLSFAEPG, 10 mM magnesium acetate and [γ-^33P]-ATP (specific activity approx. 500 cpm/pmol, concentration as required). The reaction is initiated by the addition of the MgATP mix. After incubation for 40 minutes at room temperature, the reaction is stopped by the addition of 3% phosphoric acid solution. A 10 μL aliquot of the reaction is then spotted onto a P30 filtermat and washed three times for 5 mins in 75 mM phosphoric acid and once in methanol prior to drying and scintillation counting.

Series [3] relates to CFA-injected mice. The series can be described thus: Grip strength testing in CFA study. The format is in vivo, C57Bl/6 mice. Here is the method:
Forepaw grip strength was determined using a grip strength meter (DFIS-2 series digital force gauge, Columbus Instruments, Columbus, Ohio). The animals' forelimbs were placed on a horizontal bar connected to a force gauge. The animal was the gently pulled away from the bar and the peak force required for a release was recorded. Each mouse was tested 3 times, with a 1 min inter-trial interval (Martinez-Huenchullan, S. F., et al., “Utility and reliability of non-invasive muscle function tests in high-fat-fed mice”. Experimental Physiology, 2017. 102(7): p. 773-778). The average peak tension (g), and tension normalised to body weight were compared.

Series [4] deals with CFA-injected mice. In words: CFA inflammatory pain model, incapacitance testing.
Setting [5] is: cell free, 10 μM cGMP, 40 minutes at room temperature.

pIC50: −log10 of the molar value.

Consider `N=C(N)NCCC[C@H](NC(=O)[C@H](CCCNC(=N)N)NC(=O)[C@H](CCCNC(=N)N)NC(=O)[C@H](CCCNC(=N)N)NC(=O)[C@H](CCCNC(=N)N)NC(=O)[C@H](CCCNC(=N)N)NC(=O)[C@H](CCCNC(=N)N)NC(=O)[C@H](CCCNC(=N)N)NC(=O)[C@H](CCCNC(=N)N)NC(=O)[C@H](CCCNC(=N)N)NC(=O)[C@H](CCCNC(=N)N)NC(=O)[C@H](CCCNC(=N)N)NC(=O)[C@H](CCCNC(=N)N)NC(=O)[C@@H](N)CCCNC(=N)N)C(N)=O` [IK01400, RRRRRRRRRRRRRR-NH2], for which the pIC50 in series [1] is 8.17. The “PKG1α IC50” value in series [1] (setting [5]) is reported as “single digit nanomolar range”. In series [2], this compound had a pIC50 of 8.28. For the same compound, the “PKG1β IC50” value in series [2] (setting [5]) is “single digit nanomolar range”. Further, the alertness of animals entry in series [3] (all time points) is on record as “alert at all time points”. Further, the “grip strength compared to vehicle control” value in series [3] (intra-peritoneal, CFA study) was “no difference”. Moreover, the “alleviation of inflammatory pain” value in series [4] (mice, both doses of the peptide employed) is on record as “alleviated pain”. In series [4] (mice, intra-peritoneal), the hyperactivity result is “no hyperactivity was observed” and the “time at which peak effect was reached following administration” value is over 1 h. Moreover, the “effectiveness in incapacitance test, morphine versus IK01400 (8.6 mg/kg)” value in series [4] (second hour after administration) is recorded as “more effective than morphine”.
